Laboratory results: patent US8906952B2, “Indole derivative or pharmaceutically acceptable salt thereof, preparation method thereof, and pharmaceutical composition for preventing or treating metabolic diseases containing same as active ingredient” (Korea Research Institute of Bioscience and Biotechnology, priority 2011, dated 2014)

How the values were obtained:
human DGAT1 = biological target: T1, human DGAT1 (Homo sapiens, UniProt O75907); experiment: DGAT enzyme inhibition test, hDGAT1 enzyme from sf9 insect cells; format: biochemical; details: enzyme from sf9 cells overexpressing hDGAT1; read-out: hDGAT-1 (sf9) IC50
T1 construct: made in house; host or cells: sf9 insect cells
T1 sequence (O75907 1-488): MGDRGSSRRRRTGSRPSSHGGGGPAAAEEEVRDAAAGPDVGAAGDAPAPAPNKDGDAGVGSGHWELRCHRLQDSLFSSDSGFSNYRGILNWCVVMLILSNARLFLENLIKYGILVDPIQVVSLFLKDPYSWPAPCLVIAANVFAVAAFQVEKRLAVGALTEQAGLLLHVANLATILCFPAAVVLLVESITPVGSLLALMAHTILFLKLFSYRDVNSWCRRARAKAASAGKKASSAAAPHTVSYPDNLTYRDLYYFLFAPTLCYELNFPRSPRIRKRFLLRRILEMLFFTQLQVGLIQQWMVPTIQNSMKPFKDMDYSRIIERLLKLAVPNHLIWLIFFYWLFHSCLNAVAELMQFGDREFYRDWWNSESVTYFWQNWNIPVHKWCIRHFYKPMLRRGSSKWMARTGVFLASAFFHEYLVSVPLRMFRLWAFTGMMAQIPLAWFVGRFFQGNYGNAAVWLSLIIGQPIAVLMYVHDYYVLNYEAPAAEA
Outline: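 Microsomes (100–200 μg) from sf9 cells overexpressing the human enzyme were incubated 10 min at 25 °C with compound in 175 mM Tris-HCl pH 8.0, 100 mM MgCl2, BSA, 30 μM [14C]palmitoyl-CoA and 200 μM 1,2-dioleoylglycerol. Extracted [14C]triacylglycerol was counted by LSC. Inhibition was calculated from treated, untreated and no-enzyme counts.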

HepG2 cells = experiment: DGAT inhibitory effect in HepG2 cells (triglyceride production from [14C]glycerol); format: cell-based; details: Homo sapiens; for activity at 10 µM: HepG2, 6 h, DMSO control = 100, read-out: Triglyceride production rate (%)/HepG2 cells at 10 μM; for inhibition at 10 µM: HepG2, 10 μM, read-out: biosynthesis inhibition rate of triglyceride
Outline: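 HepG2 cells, switched to FBS-free DMEM, were treated with compounds at 10 μM and given 0.2 mCi [14C]glycerol for 6 hr. Lipids were hexane:isopropanol-extracted, triglyceride separated by TLC and quantified by radio-imaging, normalised to cell protein. Production expressed relative to DMSO control set at 100.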

hDGAT-1 (HuTu 80) = biological target: T2, hDGAT-1 (HuTu 80) (Homo sapiens, UniProt O75907); experiment: DGAT enzyme inhibition test, microsomal protein from human duodenal adenocarcinoma (Hutu 80); format: biochemical; details: microsomal protein from HuTu 80
T2 construct: microsomal protein isolated from human duodenal adenocarcinoma (‘Hutu 80’); endogenous in cells; host or cells: HuTu 80 human duodenal adenocarcinoma cells (microsomes)
T2 sequence (O75907 1-488): T1 sequence (O75907 1-488)
Source text: To investigate inhibitory effect of the compounds of Examples 1-33 against DGAT enzyme activity, DGAT enzyme inhibition and DGAT2 selectivity were investigated using zymogen including:
2) DGAT enzyme derived from human duodenal adenocarcinoma (‘Hutu 80’), and
To be specific, for the purpose of measuring human-derived DGAT enzyme inhibitory activity, using the zymogen, including enzymes derived from insect cell overexpressing human DGAT1 and DGAT2 (‘sf9’), microsomal protein isolated from human duodenal adenocarcinoma (‘Hutu 80’), and microsomal protein isolated from rat, and according to Coleman et al., (Methods Enzymol., 98-103, 1992), and substrate including 1,2-diacylglycerol(Sigma, D0138) and [^14C]palmitoyl-CoA (Amersham, CFA583), the amount of radiation of [^14C]triacylglycerol produced after enzymatic reaction was measured.
To be more specific, to the reaction solution containing 175 mM Tris-HCl (pH 8.0), 20 μl bovine serum albumin (10 mg/ml), 100 mM magnesium chloride, 30 μM [^14C]palmitoyl CoA (0.02 μCi, Amersham) and 200 μM 1,2-dioleoylglycerol, reagent dissolved in dimethylsulfoxide (10.0 μl) was added. After introducing 100 to 200 μg isolated microsomal protein and allowing the same to react at 25° C. for 10 min, the reaction was stopped by adding 1.5 ml stop solution (2-propanol:heptane:water=80:20:2, v:v:v). To isolate the product of the reaction (i.e., [^14C]triacylglycerol), 1 ml heptane and 0.5 ml distilled water were added and then decocted. After taking 1 ml supernatant, 2 ml alkaline ethanol solution (ethanol:0.5 N sodium hydroxide:water=50:10:40, v:v:v) were added and then decocted. After taking 0.65 ml supernatant from the decoction, the amount of radiation was measured with liquid scintillation counter (LSC). The DGAT inhibitory activity was calculated with Mathematical Expression 1 below:
T denotes cpm of experimental group in which the enzymatic reaction solution was treated with the sample,
C denotes cpm of control group in which the enzymatic reaction solution was not treated with the sample, and
B denotes cpm of control group treated with the sample without zymogen.

Structure (SMILES) | IC50 (human DGAT1) [µM] | IC50 (hDGAT-1 (HuTu 80)) [µM] | activity at 10 µM (HepG2 cells) [%] | inhibition at 10 µM (HepG2 cells) [%]
CC(=O)n1cc(/C=C/C(=O)N(NC(=O)c2ccccc2)C(C)C)c2ccccc21 [Example 30, (E)-N′-(3-(1-acetyl-1H-indol-3-yl)acryloyl)-N′-isopropylbenzohydrazide] | 65.3 | 27 | 89 | 
CC(C)N(NC(=O)c1ccccc1)C(=O)/C=C/c1cn(C(=O)C(C)(C)C)c2ccccc12 [Example 31, (E)-N′-isopropyl-N′-(3-(1-pivaloyl-1H-indol-3-yl)acryloyl)benzohydrazide] | 9.3 | 5.1 | 93.3 | 
CC(C)N(NC(=O)c1ccccc1)C(=O)/C=C/c1cn(C(=O)c2ccccc2)c2ccccc12 [Example 32, (E)-N′-(3-(1-benzoyl-1H-indol-3-yl)acryloyl)-N′-isopropylbenzohydrazide] | 5.7 | 0.97 | 91.4 | 

Continued, in another order:

IC50 (human DGAT1) [µM] | IC50 (hDGAT-1 (HuTu 80)) [µM] | Structure (SMILES) | activity at 10 µM (HepG2 cells) [%] | inhibition at 10 µM (HepG2 cells) [%]
24.6 | 4.6 | CC(C)N(NC(=O)c1ccccc1)C(=O)/C=C/c1cn(C2CC2)c2ccccc12 [Example 29, (E)-N′-(3-(1-cyclopropyl-1H-indol-3-yl)acryloyl)-N′-isopropylbenzohydrazide] | 59.6 | 30 to 40
5.3 | 2.1 | CC(C)N(NC(=O)c1ccccc1)C(=O)/C=C/c1cn(C(=O)CC(C)(C)C)c2ccccc12 [Example 33, (E)-N′-(3-(1-(3,3-dimethylbutanoyl)-1H-indol-3-yl)acryloyl)-N′-isopropylbenzohydrazide] | 78.2 | 20 to 30
